Source: PMC7604896, “Synthesis and Antiviral Properties of 1-Substituted 3-[ω-(4-Oxoquinazolin-4(3H)-yl)alkyl]uracil Derivatives” (Acta Naturae, 2020)

Legend:
HCMV Davis = experiment: Anti-HCMV assay (Davis strain), inhibition of virus-induced cytopathicity or plaque formation in HEL fibroblasts; type: cell-based, human cytomegalovirus; details: Human betaherpesvirus 5; HEL cell culture; concentration reducing virus plaque formation by 50%; read-out: Antiviral activity, EC50 HCMV Davis
Procedure: (§1) The compounds were evaluated against human cytomegalovirus (HCMV, strains AD-169 and Davis) and the varicella zoster virus (VZV, strains OKA and YS). The antiviral assays were based on the inhibition of virus-induced cytopathicity or plaque formation in human embryonic lung (HEL) fibroblasts. Confluent cell cultures in 96-well microplates were inoculated with 100 CCID50 of the virus (1 CCID50 being the virus dose to infect 50% of the cell culture) or 10 or 100 plaque-forming units (PFU) (for VZV and HCMV) in the presence of varied concentrations of the test compounds. Viral cytopathicity or plaque formation was recorded as soon as it reached completion in the control virus-infected cell cultures not treated with the test compounds.

[1] = Cytotoxicity, inhibition of cell growth in HEL cell culture; type: cell-based; details: human; HEL cells; concentration reducing cell growth by 50%
HEL cells = experiment: Cytotoxicity, alteration of cell morphology in HEL cell culture; type: cell-based, human; details: minimum cytotoxic concentration causing microscopically detectable alteration of cell morphology
HCMV AD-169 = experiment: Anti-HCMV assay (AD-169 strain), inhibition of virus-induced cytopathicity or plaque formation in HEL fibroblasts; type: cell-based, human cytomegalovirus; details: HEL cell culture; for EC50: Human betaherpesvirus 5, AD169, concentration reducing virus plaque formation by 50%, read-out: Antiviral activity, EC50 HCMV AD-169; for Inhibitory properties against HCMV (in words): AD-169 and Davis strains
Procedure: as §1

VZV Oka (TK+) = experiment: microbe, parasite or virus in culture; type: cell-based, varicella zoster virus; details: Human alphaherpesvirus 3, HEL, read-out: Antiviral activity, EC50 VZV Oka (TK+)
Procedure: as §1

VZV 07-1 (TK-) = experiment: microbe, parasite or virus in culture; type: cell-based, varicella zoster virus; details: Human alphaherpesvirus 3, HEL, read-out: Antiviral activity, EC50 VZV 07-1 (TK-)

Compound	EC50 (HCMV Davis)	CC50 [1]	Cytotoxicity, Cell morphology MCC (HEL cells)	EC50 (HCMV AD-169)	melting point	EC50 (VZV Oka (TK+))	EC50 (VZV 07-1 (TK-))	Inhibitory properties against HCMV (in words) (HCMV AD-169)
Nc1nc(O)c2ncn(COC(CO)CO)c2n1 [Ganciclovir, reference compound]	2.01 µM	196 µM	350 μM	2.4 µM	–	–	–	–
O=c1c2ccc(Cl)cc2ncn1CCn1c(=O)ccn(CCCCCOc2ccc(Br)cc2)c1=O [Compound 16, 1-[5-(4-Bromophenoxy)pentyl]-3-[2-(7-chloro-4-oxoquinazolin-4(3H)-yl)ethyl]uracil]	> 20 µM	–	20 μM	> 20 µM	154 to 155 °C	> 20 µM	> 100 µM	complete loss of inhibitory properties
O=c1[nH]c(=O)n([C@H]2C[C@H](O)[C@@H](CO)O2)cc1/C=C/Br [Brivudine, reference compound]	–	> 100 µM	> 300 μM	–	–	0.039 µM	6.04 µM	–
O=c1c2ccccc2ncn1CCn1c(=O)ccn(CCCCCCOc2ccc(Br)cc2)c1=O [Compound 12, 1-[6-(4-Bromophenoxy)hexyl]-3-[2-(4-oxoquinazolin-4(3H)-yl)ethyl]uracil]	> 20 µM	–	100 μM	> 100 µM	178.5 to 179.5 °C	> 100 µM	> 100 µM	–
O=c1c2ccccc2ncn1CCn1c(=O)ccn(CCCCCCCCOc2ccc(Br)cc2)c1=O [Compound 13, 1-[8-(4-Bromophenoxy)octyl]-3-[2-(4-oxoquinazolin-4(3H)-yl)ethyl]uracil]	> 100 µM	12.8 µM	> 100 μM	> 100 µM	171.5 to 173 °C	> 100 µM	> 100 µM	–
Nc1ccn(C[C@@H](CO)OCP(=O)(O)O)c(=O)n1 [Cidofovir, reference compound]	0.38 µM	129 µM	300 μM	0.38 µM	–	–	–	–
Nc1nc2c(ncn2COCCO)c(=O)[nH]1 [Acyclovir, reference compound]	–	> 100 µM	–	–	–	–	–	–
O=c1c2ccccc2ncn1CCn1c(=O)ccn(CCCCCCCCCCCCOc2ccc(Br)cc2)c1=O [Compound 15, 1-[12-(4-Bromophenoxy)dodecyl]-3-[2-(4-oxoquinazolin-4(3H)-yl)ethyl]uracil]	> 100 µM	> 100 µM	≥ 100 μM	> 100 µM	150 to 152 °C	> 100 µM	> 100 µM	–
O=c1c2ccccc2ncn1CCn1c(=O)ccn(CCCCCCCCCCOc2ccc(Br)cc2)c1=O [Compound 14, 1-[10-(4-Bromophenoxy)decyl]-3-[2-(4-oxoquinazolin-4(3H)-yl)ethyl]uracil]	> 100 µM	> 100 µM	> 100 μM	> 100 µM	161 to 162 °C	> 100 µM	> 100 µM	–
O=c1c2ccccc2ncn1CCn1c(=O)ccn(CCCOc2ccc(Br)cc2)c1=O [Compound 9, 1-[3-(4-Bromophenoxy)propyl]-3-[2-(4-oxoquinazolin-4(3H)-yl)ethyl]uracil]	> 100 µM	–	100 μM	> 100 µM	178.5 to 179.5 °C	> 100 µM	> 100 µM	complete loss of inhibitory properties
Cc1ccc2ncn(CCn3c(=O)ccn(CCCCCOc4ccc(Br)cc4)c3=O)c(=O)c2c1 [Compound 18, 1-[5-(4-Bromophenoxy)pentyl]-3-[2-(6-methyl-4-oxoquinazolin-4(3H)-yl)ethyl]uracil]	> 100 µM	> 100 µM	> 100 μM	> 100 µM	180 to 181.5 °C	> 100 µM	> 100 µM	complete loss of inhibitory properties
O=c1c2ccccc2ncn1CCn1c(=O)ccn(CCCCCOc2ccc(Br)cc2)c1=O [Compound 11, 1-[5-(4-Bromophenoxy)pentyl]-3-[2-(4-oxoquinazolin-4(3H)-yl)ethyl]uracil]	> 20 µM	–	100 μM	> 20 µM	174.5 to 176 °C	> 20 µM	> 100 µM	complete loss of inhibitory properties
O=c1c2ccccc2ncn1CCn1c(=O)ccn(CCCCOc2ccc(Br)cc2)c1=O [Compound 10, 1-[4-(4-Bromophenoxy)butyl]-3-[2-(4-oxoquinazolin-4(3H)-yl)ethyl]uracil]	> 100 µM	–	20 μM	> 20 µM	191 to 192 °C	> 20 µM	> 100 µM	complete loss of inhibitory properties
O=c1c2ccccc2ncn1CCCn1c(=O)ccn(CCCCCOc2ccc(Br)cc2)c1=O [Compound 17, 1-[5-(4-Bromophenoxy)pentyl]-3-[3-(4-oxoquinazolin-4(3H)-yl)propyl]uracil]	5.23 µM	1.81 µM	20 μM	7.31 µM	103.5 to 104.5 °C	29 µM	29 µM	–
